Read-outs that look alike come from different tables or passages of the source.
Experiments:
CYP2C11 = target: T1, CYP2C11 (Rattus norvegicus, UniProt P08683); experiment: Cocktail CYP inhibition in rat liver microsomes, CYP2C11 (tolbutamide); format: in vitro ADME; details: cocktail method, read-out: IC50 values, CYP2C11 in RLMs
T1 construct: containing 100 μL RLMs or HLMs; tissue Research Institute for Liver Diseases (Shanghai) Co., Ltd; host or cells: male SD rat liver microsomes
Experimental: We used the cocktail method to study the inhibition activities of DPTM against CYP enzymes in RLMs and HLMs with slight modification. DPTM (250 μmol) was dissolved in 1.25 mL methanol to a solution and then diluted with methanol and water to 2, 10, 20, 100, 200, 400, 1,000 and 2000 μM, respectively. The obtained serial dilutions (10 μL) were added to the incubation mixtures (200 μL total volume), containing 100 μL RLMs or HLMs (final concentration was 5 μg/μL, respectively), 10 μL glucose-6-phosphate (final concentration was 1 mM), 10 μL glucose-6-phosphate dehydrogenase (final concentration was 0.1 U/L), 20 μL potassium phosphate buffer (final concentration was 0.01 M) and 20 μL MgCl2 (final concentration was 2 mM), to give the final concentrations were 0.1, 0.5, 1, 5 10, 20, 50, and 100 μM, respectively. For the groups that in the absence of DPTM, 10 μL methanol (1%) replaced the DPTM and was added to the incubation mixtures. […] The final concentration of methanol in all the incubation mixtures, including the blank group, was […]. […] The determined metabolic substrates were used for calculating the relative enzyme activity (Erel) by the following formula: Erel (%) = Ci(n)/Ci(0) × 100%, in which Ci(n) was the determined metabolic substrates in the presence of varying concentrations of DPTM and Ci(0) was the determined metabolic substrates in the absence of DPTM. […]

[1] = MTT cytotoxicity assay on Hep G2 cells; format: cell-based, human; details: human, DPTM 4.98 mM, read-out: cell viability
Experimental: Intrinsic toxicity of DPTM was conducted as described in the literature[36]–[38] with some modifications. […] After proliferating to logarithmic growth phase at 37 °C under 5% CO2, cells were seeded to a new 96-well plate with a density of […] and cultured for 24 h at the same condition. The media were replaced with 100 μL of serial dilutions of DPTM (10 mg DPTM was dissolved in 1 mL 1% DMSO to a solution and then diluted two-fold with distilled water to provide 19.91, 9.96, 4.98, 2.49, 1.25, 0.62, 0.31, 0.16 and 0.08 mM serial dilutions). The blank group only used 1% DMSO to replace the media. The obtained mixture was incubated for 24 h. After that, all media in cells were removed and 20 μL of MTT reagent was added for an additional 4 h. Then, supernatant fraction was removed and 100 μL dimethyl sulfoxide (DMSO) was added, followed by incubation at 37 °C for 15 min. The absorbance of each well was determined by a spectrophotometer at dual wavelengths of 570 and 279 nm for the background. The viability percentage was calculated by the following formula: cell viability % = (ODsample − ODblank/ODcontrol − ODblank) × 100. A sigmoid-shaped curve was fitted to the data, and the IC50 was calculated by fitting the Hill equation to the data with nonlinear regression (least-squares best fit modelling) using GraphPad Prism 4 (GraphPad Software Inc., San Diego, USA). […]

S. typhimurium TA1535 = details: − S9
Source text: (§1) S. typhimurium strains TA97, TA98, TA100, TA102 and TA1535 were stored and maintained as provided in the standard protocol. Each of the strains was checked for their genetic integrity prior to the experiment, and tested for biotin dependence, histidine dependence, biotin and histidine dependence, rfa marker (crystal violet) and presence of the plasmid pKM101 (ampicillin resistance) or pAQ1 (tetracycline resistance). Different strains were used to identify different types of mutations.
(§2) The test was carried out at five different concentrations of DPTM. […] Then 1 mL solution was diluted with distilled water by two fold. […] The negative control used in this experiment was 1 mL DMSO which was directly incorporated into 9 mL melted top agar.
(§3) The Ames test of DPTM was conducted as described in the literatures[42],[43] with some modifications. Briefly, 1 mL of strain was inoculated into 5 mL of nutrient broth, followed by incubating overnight at 37 °C. The mixture comprised respective strains, drug, negative and positive controls with the S9 for testing in the presence of metabolic activation system. For testing without S9, 1 × phosphate buffer saline (PBS, pH 7.4) replaced the S9 mix. The obtained mixtures were added into the tube, mixed well and incubated at 37 °C for 20 min. Then, the top agar was melted and 2 mL of this melted top agar was added to each tube and gently mixed. […] The results were expressed as the number of revertant colonies per plate. The experiments were performed in triplicate.

S. typhimurium TA100 = details: − S9
Source text: as §1, §2, §3

PXR mRNA = PXR mRNA expression in Hep G2 cells (real-time PCR); format: cell-based, human; details: 4 and 12 h, three doses
Experimental: The logarithmic growth phase Hep G2 cells were seeded into 12-well plastic plates at a density of […]. After incubation at 37 °C under 5% CO2 for 24 h, the media were then replaced with 1 mL of serial dilutions of the DPTM (4.98, 0.16 and 0.08 mM) in fresh media. When cells were incubated for 2, 4 and 12 h at 37 °C under 5% CO2, the RNA was isolated using the Trizol reagent according to the manufacturer’s protocol. Total RNA (5 μL) was transcribed into cDNA by using the PrimeScript RT reagent Kit (Perfect Real Time). The obtained cDNA (5 μL) was added for 45 cycles of PCR amplification to detect the mRNA expression (the primers and sequences used herein were given in Table 3) using the ABI Villa TM7Dx real-time PCR system (Gaithersburg, USA). Glyceraldehyde-3-phosphate dehydrogenase (GAPDH) was used as reference gene. All reactions were performed in a final volume of 20 μL (10 μL of 2 × SYBR Green Real-time PCR Master Mix, 2 μL of cDNA and 2 μL of the primers and 6 μL DEPC water) and executed in triplicate.

T1 sequence (P08683 whole entry): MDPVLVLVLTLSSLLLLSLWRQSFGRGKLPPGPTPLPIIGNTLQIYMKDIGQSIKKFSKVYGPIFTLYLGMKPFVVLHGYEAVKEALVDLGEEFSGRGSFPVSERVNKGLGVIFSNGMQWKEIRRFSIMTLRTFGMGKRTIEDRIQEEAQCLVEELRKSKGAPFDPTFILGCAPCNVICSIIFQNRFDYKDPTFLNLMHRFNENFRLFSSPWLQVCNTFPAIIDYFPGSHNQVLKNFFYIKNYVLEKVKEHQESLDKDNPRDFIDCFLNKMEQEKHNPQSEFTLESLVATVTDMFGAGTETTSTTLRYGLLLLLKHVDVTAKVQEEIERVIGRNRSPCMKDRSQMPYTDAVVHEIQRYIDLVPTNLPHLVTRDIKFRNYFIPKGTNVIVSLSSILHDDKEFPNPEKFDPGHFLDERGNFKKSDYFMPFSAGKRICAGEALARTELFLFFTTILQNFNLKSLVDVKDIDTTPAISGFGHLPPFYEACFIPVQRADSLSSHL

Which results are given for C=CC1(C)CC(OC(=O)CSc2nc(N)cc(N)n2)C2(C)C(C)CCC3(CCC(=O)C32)C(C)C1O (stereo not shown) [DPTM, 14-O-[(4,6-Diaminopyrimidine-2-yl)thioacetyl] mutilin]?
IC50 (CYP2C11): > 100 µM; viability at 24 h, 4.98 mM [1]: 79%; revertant colonies per plate, TA1535 (S. typhimurium TA1535; dose 0.25 μmol/plate): 22 ± 3 CFU; revertant colonies per plate, TA1535 (S. typhimurium TA1535; dose 0.50 μmol/plate): 21 ± 5 CFU; revertant colonies per plate, TA1535 (S. typhimurium TA1535; dose 1.00 μmol/plate): 26 ± 1 CFU; revertant colonies per plate, TA1535 (S. typhimurium TA1535; dose 1.99 μmol/plate): 22 ± 3 CFU; revertant colonies per plate, TA1535 (S. typhimurium TA1535; dose 3.98 μmol/plate): 22 ± 4 CFU; revertant colonies per plate, TA100 (S. typhimurium TA100; dose 0.25 μmol/plate): 171 ± 15 CFU; revertant colonies per plate, TA100 (S. typhimurium TA100; dose 0.50 μmol/plate): 162 ± 13 CFU; revertant colonies per plate, TA100 (S. typhimurium TA100; dose 1.00 μmol/plate): 165 ± 14 CFU; revertant colonies per plate, TA100 (S. typhimurium TA100; dose 1.99 μmol/plate): 170 ± 12 CFU; revertant colonies per plate, TA100 (S. typhimurium TA100; dose 3.98 μmol/plate): 173 ± 15 CFU; PXR mRNA expression versus control (PXR mRNA): significantly increased
